Literature values, collected in US8999893B2, “Stabilized oil-in-water emulsions including meptyl dinocap” (Dow AgroSciences LLC, priority 2008, dated 2015).

## 2,6-dinitro-4-octylphenyl crotonates and 2,4-dinitro-6-octylphenyl crotonates in which ‘octyl’ is a mixture of 1-methylheptyl, 1-ethylhexyl and 1-propylpentyl groups [Meptyl Dinocap]
  solubility in water: 0.151 µg/mL
